Where two headings read alike, the source gives them in different places.
Tests used:
[1] = molecular target: RRE subdomain IIB RNA hairpin IIBh; experiment: Fluorescence intensity binding to fluorescein-labelled IIBh hairpin; set-up: species or system HIV-1; settings: for IIB-DNA spec., Kd(IIBh)/Kd(IIBh+LTRd) / IIB-tRNA spec., Kd(IIBh)/Kd(IIBh+tRNA): low ionic strength, 10 mM sodium phosphate pH 6.6, uses Kd1
Text: We next determined whether the terphenyl molecules blocked the interaction between Rev34–50 and subdomain IIB by binding to the RNA and, if so, whether they recognized subdomain IIB in a manner similar to the Rev34–50 α-helix. We first evaluated subdomain IIB association by measuring changes in the fluorescence intensity of a IIBh RNA hairpin construct containing a fluorescein probe attached to unpaired loop IIB residue U23 (Fig. 1D)[21],[22]. […] However, there were significant differences among the compounds.
These experiments measured association to IIBh-23fl or TARh-8fl RNA molecules labelled with fluorescein at extrahelical loop nucleotides U23 and U8, respectively (Fig. 1D), and were carried out under two different ionic conditions in a Victor X5 plate reader, using excitation and emission wavelengths of 485 and 520 nm, respectively. We also attempted to measure association to an alternative IIBh hairpin containing 2-aminopurine instead of adenine at unpaired loop IIB residue A19[21], but all terphenyls fluoresced at the excitation wavelength of this fluorophore. IIBh-23fl or TARh-8fl (at 100 nM concentration) was equilibrated for 5 minutes after each ligand addition in a buffer containing either 10 mM sodium phosphate pH 6.6 and 0.1 mM EDTA or 10 mM HEPES pH 7.5, 200 mM KCl and 2 mM MgCl2. In addition to the TARh specificity control, the RNA and DNA specificity of the IIBh interactions was assessed by duplicating the experiments in the presence of a 10-fold molar excess (1 μM) of either tRNA^Lys or DNA duplex LTRd. The equilibrium dissociation constants Kd were determined by fitting the fluorescence intensity curves with DYNAFIT[40]. We used one-site, two independent-sites and two interacting-sites binding models for all curves, and the best model was automatically selected by model discrimination analysis, except where indicated. The final graphs were plotted with Prism. All fluorescence intensity experiments were performed at least two times for each compound and condition.

[2] = molecular target: RRE subdomain IIB (IIBh); experiment: Isothermal titration calorimetry with IIBh; format: binding, HIV-1; settings: 25 °C; 10 mM sodium phosphate pH 7.4, 0.1 mM EDTA; read-out: equilibrium dissociation constant, RRE subdomain IIB (ITC)
Experimental: (§1) These experiments were performed at 25 °C in MicroCal PEAQ-ITC or Nano-ITC microcalorimeters, and the data was subsequently analysed with MicroCal or Nanoanalyze software, respectively. All species were dissolved in aqueous solutions containing 10 mM sodium phosphate (pH 7.4 or 8.2) and 0.1 mM EDTA. For the IIBh:1a interaction the pH was 7.4, and 10 or 20 μM solutions of IIBh in the sample cell were titrated with 19 injections of 350 or 500 μM solutions of 1a. […]. […] For the DNAd:1a interaction, the pH was 8.2, and 800 or 900 μM solutions of 1a were titrated into 20 μM solutions of DNAd duplex in the sample cell with 19 injections of 2 µL. In both cases, the titration experiments were repeated three times, and the resulting association curves were fitted using a model with a single set of binding sites.

[3] = molecular target: DNA duplex DNAd; experiment: Isothermal titration calorimetry with DNAd duplex; format: binding; settings: 25 °C, 10 mM sodium phosphate pH 8.2, 0.1 mM EDTA, read-out: equilibrium dissociation constant, related DNA duplex (ITC)
Experimental: as §1

[4] = tested on: HIV-1 reverse transcription; experiment: qPCR quantification of early and late HIV-1 reverse transcripts in MT-2 cells; format: cell-based; settings: MT-2 cells infected with NL4.3 for 5 hours
Experimental: MT-2 cells were pre-treated with two different concentrations of terphenyl molecules 1a, 1d or 3c, selected on the basis of the observed RRE-Rev IC50 and cellular EC50 values, and infected with NL4.3 wild-type HIV-1 for 5 hours. Total genomic DNA was isolated with a QIAamp DNA blood mini kit (Qiagen) and quantified by spectrophotometry. Early and late viral DNAs were quantified by qPCR as previously described. qPCR was performed in triplicate in a StepOne Real-Time PCR system using standard cycling conditions. Serial dilutions of genomic DNA from the 8E5 cell line, which contain a single integrated copy of HIV-1[43], were used as standard curve. The CCR5 gene was used as an endogenous control.

[5] = tested on: RRE-Rev system (unspliced, single-spliced, multiple-spliced HIV-1 transcripts); experiment: RT-qPCR analysis of HIV-1 RNA splicing in MT-2 cells; format: cell-based; settings: 24 and 48 hours post-infection, 100 μM; not statistically significant
Experimental: Given that splicing takes place in the nucleus, a blockage of the RRE-Rev system should reduce the levels of unspliced or single-spliced transcripts and increase the proportion of multiple-spliced species.
MT-2 cells were infected with a NL4.3 virus for 2 hours (10 ng/10^6 cells) and treated with two different concentrations of compounds 1a, 1d or 3c for 24, 48, 72 or 96 hours. The compound concentrations were chosen on the basis of the observed RRE-Rev IC50 and cellular EC50 values. Total cellular RNA was isolated, treated with DNase I and reverse-transcribed as previously described[21],[22]. Unspliced, single-spliced and multiple-spliced HIV-1 RNA transcripts were quantified by qPCR relative to a control obtained from untreated cells, using the primers described by Mohammadi et al.[48], and GAPDH as an endogenous control.

[6] = 10 mM sodium phosphate pH 6.6, 0.1 mM EDTA, two-site model, read-out: Kd (IIBh), first-site Kd1
[7] = 10 mM sodium phosphate pH 6.6, 0.1 mM EDTA, two-site model, read-out: Kd (IIBh), second-site Kd2 (in brackets)
[8] = 10-fold molar excess DNA duplex LTRd, 10 mM sodium phosphate pH 6.6, 0.1 mM EDTA, one-site fit, approximate, read-out: Kd (IIBh+LTRd)
[9] = 10-fold molar excess LTRd, 10 mM HEPES pH 7.5, 200 mM KCl, 2 mM MgCl2, read-out: Kd (IIBh+LTRd), one-site or first-site Kd1, Table S2
[10] = 10-fold molar excess tRNALys, 10 mM sodium phosphate pH 6.6, 0.1 mM EDTA, one-site fit, approximate, read-out: Kd (IIBh+tRNA)
[11] = higher ionic strength, 10 mM HEPES pH 7.5, 200 mM KCl, 2 mM MgCl2
[12] = higher ionic strength, 10 mM HEPES pH 7.5, 200 mM KCl, 2 mM MgCl2, read-out: Kd (IIBh), first-site Kd1, Table S2
[13] = higher ionic strength, 10 mM HEPES pH 7.5, 200 mM KCl, 2 mM MgCl2, read-out: Kd (IIBh), second-site Kd2 (in brackets), Table S2
[14] = 10-fold molar excess tRNALys, 10 mM HEPES pH 7.5, 200 mM KCl, 2 mM MgCl2, one-site fit, approximate, read-out: Kd (IIBh+tRNA), Table S2

| SMILES | Kd [1, 6] [µM] | Kd [1, 7] [µM] | Kd [1, 8] [µM] | Kd [1, 9] [µM] | Kd [1, 10] [µM] | IIB-DNA spec., Kd(IIBh)/Kd(IIBh+LTRd), Table S2 [1, 11] | Kd [1, 12] [µM] | Kd [1, 13] [µM] | IIB-DNA spec., Kd(IIBh)/Kd(IIBh+LTRd) [1] | IIB-tRNA spec., Kd(IIBh)/Kd(IIBh+tRNA) [1] | Kd [2] [µM] | Kd [3] [µM] | diminished levels of early viral DNA sequences [4] [%] | Kd ([1]; 10-fold molar excess LTRd, 10 mM HEPES pH 7.5, 200 mM KCl, 2 mM MgCl2, read-out: Kd (IIBh+LTRd), second-site Kd2 (in brackets), Table S2) [µM] | Kd [1, 14] [µM] | IIB-tRNA spec., Kd(IIBh)/Kd(IIBh+tRNA), Table S2 [1, 11] | pattern of unspliced, single-spliced and multiple-spliced viral transcripts [5] |
| --- | --- | --- | --- | --- | --- | --- | --- | --- | --- | --- | --- | --- | --- | --- | --- | --- | --- |
| COc1cc(CCN)c(-c2cc(C)c(-c3cc(CCN)c(OC)cc3CCN)cc2C)cc1CCN [Compound 1a] | 0.98 | 5.9 | 2.4 | 15 | 28 | 0.29 | 4.4 | 18 | 0.41 | 0.035 | 0.5 | 6.3 | 25 |  |  |  |  |
| Cc1cc(-c2cc(CCN)ccc2CCN)c(C)cc1-c1cc(CCN)ccc1CCN [Compound 1d] | 0.87 | 3.5 | 2.2 | 3.7 | 7.8 | 2.1 | 7.6 | 30 | 0.40 | 0.11 |  |  |  | 54 | 42 | 0.18 | clearest patterns consistent with RRE-Rev inhibition |
| Cc1cc(-c2cc(CCN)ccc2CCN)c(C)cc1-c1cccc(CCN)c1 [Compound 3c] | 6.5 | 26 | 8.1 | > 50 | 5.2 |  | > 50 |  | 0.80 | 1.3 |  |  | 25 |  | > 50 |  |  |
